Laboratory results as given in patent US20120295907A1, “INSECTICIDAL COMPOUNDS” (SYNGENTA CROP PROTECTION, LLC, priority 2009, published 2012).

Legend:
Assay type in all cases: in vivo
Diabrotica balteata = Diabrotica balteata (Corn Root Worm) artificial diet MTP test; conditions: 120 h, 200 ppm (concentration in well 18 ppm), L2 larvae, 5 days, larval mortality, growth regulation
Heliothis virescens = Heliothis virescens (Tobacco Budworm) egg test on artificial diet; conditions: 96 h, 200 ppm (concentration in well 18 ppm), eggs 0-24 h old on artificial diet, 4 days, egg mortality, larval mortality, growth regulation
Plutella xylostella = Plutella xylostella (Diamond Back Moth) artificial diet MTP test; conditions: 144 h, 200 ppm (concentration in well 18 ppm), L2 larvae, 6 days, larval mortality, growth regulation
Spodoptera littoralis = Spodoptera littoralis (Egyptian Cotton Leafworm) cotton leaf disc spray test; conditions: foliar, 72 h, 200 ppm spray on cotton leaf discs, L1 larvae, mortality, feeding behavior, growth regulation 3 DAT

Measured: pest or weed control at 200 ppm

CCc1cc(C(F)(C(F)(F)F)C(F)(F)C(F)(F)F)cc(C)c1NC(=O)c1cccc(NC(=O)c2ccc(F)cc2)c1OC (centres unmarked) [A1, N-[2-ethyl-4-(1,2,2,3,3,3-hexafluoro-1-trifluoromethylpropyl)-6-methylphenyl]-3-(4-fluorobenzoylamino)-2-methoxybenzamide]
≥ 80%: all assays above

COc1c(NC(=O)c2cccc(F)c2F)cccc1C(=O)Nc1c(Cl)cc(C(F)(C(F)(F)F)C(F)(F)C(F)(F)F)cc1Br (centres unmarked) [B22]
≥ 80%: all assays above

COc1c(NC(=O)c2ccc(-n3cccc3)cc2)cccc1C(=O)Nc1c(Cl)cc(C(F)(C(F)(F)F)C(F)(F)C(F)(F)F)cc1Br (centres unmarked) [B30]
≥ 80%: Diabrotica balteata | Heliothis virescens | Spodoptera littoralis

COc1c(NC(=O)c2cnccn2)cccc1C(=O)Nc1c(Cl)cc(C(F)(C(F)(F)F)C(F)(F)C(F)(F)F)cc1Br (centres unmarked) [B56]
≥ 80%: all assays above

COc1c(NC(=O)c2cc([N+](=O)[O-])ccc2Cl)cccc1C(=O)Nc1c(Cl)cc(C(F)(C(F)(F)F)C(F)(F)C(F)(F)F)cc1Br (centres unmarked) [B62]
≥ 80%: all assays above

COc1c(NC(=O)c2cc(C)ccc2Cl)cccc1C(=O)Nc1c(Cl)cc(C(F)(C(F)(F)F)C(F)(F)C(F)(F)F)cc1Br (centres unmarked) [B72]
≥ 80%: all assays above

COc1c(NC(=O)c2cc(Br)ccc2Cl)cccc1C(=O)Nc1c(Cl)cc(C(F)(C(F)(F)F)C(F)(F)C(F)(F)F)cc1Br (centres unmarked) [B83]
≥ 80%: all assays above

COc1c(NC(=O)c2ccc(C)c(Br)c2)cccc1C(=O)Nc1c(Cl)cc(C(F)(C(F)(F)F)C(F)(F)C(F)(F)F)cc1Br (centres unmarked) [B84]
≥ 80%: all assays above

COc1c(NC(=O)c2cccc([N+](=O)[O-])c2Br)cccc1C(=O)Nc1c(Cl)cc(C(F)(C(F)(F)F)C(F)(F)C(F)(F)F)cc1Br (centres unmarked) [B85]
≥ 80%: all assays above

COc1c(NC(=O)c2cc([N+](=O)[O-])cc([N+](=O)[O-])c2C)cccc1C(=O)Nc1c(Cl)cc(C(F)(C(F)(F)F)C(F)(F)C(F)(F)F)cc1Br (centres unmarked) [B86]
≥ 80%: all assays above

COc1c(NC(=O)c2cc(C)n(C)n2)cccc1C(=O)Nc1c(Cl)cc(C(F)(C(F)(F)F)C(F)(F)C(F)(F)F)cc1Br (centres unmarked) [B100]
≥ 80%: all assays above

COc1c(NC(=O)c2ccc(SC)cc2[N+](=O)[O-])cccc1C(=O)Nc1c(Cl)cc(C(F)(C(F)(F)F)C(F)(F)C(F)(F)F)cc1Br (centres unmarked) [B116]
≥ 80%: all assays above

COc1c(NC(=O)c2cn(C)nc2C#N)cccc1C(=O)Nc1c(Cl)cc(C(F)(C(F)(F)F)C(F)(F)C(F)(F)F)cc1Br (centres unmarked) [B117]
≥ 80%: all assays above

COc1c(NC(=O)c2ccc(C(F)(F)F)cc2SC)cccc1C(=O)Nc1c(Cl)cc(C(F)(C(F)(F)F)C(F)(F)C(F)(F)F)cc1Br (centres unmarked) [B125]
≥ 80%: Diabrotica balteata | Heliothis virescens | Plutella xylostella

COc1c(NC(=O)c2cnccc2C(F)(F)F)cccc1C(=O)Nc1c(Cl)cc(C(F)(C(F)(F)F)C(F)(F)C(F)(F)F)cc1Br (centres unmarked) [B126]
≥ 80%: all assays above

COc1c(NC(=O)c2cc([N+](=O)[O-])c(F)cc2Cl)cccc1C(=O)Nc1c(Cl)cc(C(F)(C(F)(F)F)C(F)(F)C(F)(F)F)cc1Br (centres unmarked) [B130]
≥ 80%: all assays above

COc1c(NC(=O)c2cn(C)nc2C(F)F)cccc1C(=O)Nc1c(Cl)cc(C(F)(C(F)(F)F)C(F)(F)C(F)(F)F)cc1Br (centres unmarked) [B131]
≥ 80%: all assays above

COc1c(NC(=O)c2cc(C)oc2C(F)(F)F)cccc1C(=O)Nc1c(Cl)cc(C(F)(C(F)(F)F)C(F)(F)C(F)(F)F)cc1Br (centres unmarked) [B144]
≥ 80%: all assays above

COc1cccc(F)c1C(=O)Nc1cccc(C(=O)Nc2c(Cl)cc(C(F)(C(F)(F)F)C(F)(F)C(F)(F)F)cc2Br)c1OC (centres unmarked) [B166]
≥ 80%: all assays above

COc1c(NC(=O)c2ccc([N+](=O)[O-])c(O)c2)cccc1C(=O)Nc1c(Cl)cc(C(F)(C(F)(F)F)C(F)(F)C(F)(F)F)cc1Br (centres unmarked) [B181]
≥ 80%: Diabrotica balteata

COc1c(NC(=O)c2ncc(Cl)cc2Cl)cccc1C(=O)Nc1c(Cl)cc(C(F)(C(F)(F)F)C(F)(F)C(F)(F)F)cc1Br (centres unmarked) [B185]
≥ 80%: all assays above

COc1c(NC(=O)c2ncc(Br)cn2)cccc1C(=O)Nc1c(Cl)cc(C(F)(C(F)(F)F)C(F)(F)C(F)(F)F)cc1Br (centres unmarked) [B187]
≥ 80%: Diabrotica balteata | Plutella xylostella | Spodoptera littoralis

COc1c(NC(=O)c2cc(Cl)ccc2F)cccc1C(=O)Nc1c(Cl)cc(C(F)(C(F)(F)F)C(F)(F)C(F)(F)F)cc1Cl (centres unmarked) [C10]
≥ 80%: Diabrotica balteata | Heliothis virescens | Spodoptera littoralis

COc1c(NC(=O)c2cc(Cl)ccc2F)cccc1C(=O)Nc1c(Cl)cc(C(F)(C(F)(F)F)C(F)(F)F)cc1Cl [E8]
≥ 80%: all assays above

COc1c(NC(=O)c2ccc(F)cc2F)cccc1C(=O)Nc1c(C)cc(C(F)(C(F)(F)F)C(F)(F)C(F)(F)F)cc1C (centres unmarked) [F9]
≥ 80%: all assays above

COc1c(NC(=O)c2cc(Cl)ccc2F)cccc1C(=O)Nc1c(C)cc(C(F)(C(F)(F)F)C(F)(F)C(F)(F)F)cc1C (centres unmarked) [F12]
≥ 80%: Diabrotica balteata | Heliothis virescens | Spodoptera littoralis

COCc1cc(C(F)(C(F)(F)F)C(F)(F)C(F)(F)F)cc(Cl)c1NC(=O)c1cccc(NC(=O)c2c(F)cc(F)cc2F)c1OC (centres unmarked) [H2]
≥ 80%: Diabrotica balteata | Heliothis virescens | Plutella xylostella

COCc1cc(C(F)(C(F)(F)F)C(F)(F)C(F)(F)F)cc(Br)c1NC(=O)c1cccc(NC(=O)c2ccc(C#N)cc2C)c1OC (centres unmarked) [I1]
≥ 80%: Diabrotica balteata | Heliothis virescens | Plutella xylostella

CCc1cc(C(F)(C(F)(F)F)C(F)(F)F)cc(C)c1NC(=O)c1cccc(NC(=O)c2ccc(C#N)cc2Cl)c1OC [J1]
≥ 80%: Diabrotica balteata | Plutella xylostella

CCc1cc(C(F)(C(F)(F)F)C(F)(F)F)cc(C)c1NC(=O)c1cccc(NC(=O)c2c(F)cc(F)cc2F)c1OC [J3]
≥ 80%: Diabrotica balteata | Heliothis virescens | Plutella xylostella

CCc1cc(C(F)(C(F)(F)F)C(F)(F)F)cc(C)c1NC(=O)c1cccc(NC(=O)c2ccc(C#N)cc2C)c1OC [J4]
≥ 80%: Diabrotica balteata | Heliothis virescens | Plutella xylostella
